Laboratory results published in US20150337351A1, “METHODS OF MICROORGANISM IMMOBILIZATION” (priority 2014, published 2015).

Legend:
Assay type in all cases: cell-based
[1] = test system: Staphylococcus aureus (SA); test: Clone growth of captured, MHA-immobilized cells from simulated blood, darkfield digital microscopy; details: 6 μg/mL FOX; 3 hours (0, 60, 120, 180 minutes); 35° C.
Experimental: Simulated blood specimens were used. Simulated blood specimens were produced by spiking SA, PA, and non-target bacilli species isolates into 10 mL volumes of blood from two short-fill CPD blood bank bags. A total of 29 simulated blood samples were produced, each having a microorganism concentration of approximately 5 CFU/mL of bacterial target species, confirmed by quantitative culture. Spiked isolates used to produce the simulated blood samples included 14 Staphylococcus aureus (SA), 3 Pseudomonas aeruginosa (PA), and 12 non-target Gram-negative bacilli species. Twenty additional control samples were produced which contained no spikes. Each sample was diluted with 30 mL of modified tryptic soy broth medium to promote growth, followed by a 4-hour incubation at 35° C. Following the 4-hour incubation period, samples were centrifuged briefly. The resulting microorganism cells pellets were resuspended in an electrokinetic concentration buffer to produce 1 mL samples for introduction into the detection system. Microorganism samples comprising 20 μL aliquots were pipetted into 14 microchannel flowcells. A 5-minute low-voltage electrokinetic capture was performed to concentrate the microorganisms on to a detection surface associated with each flowcell. […] Controls included quantitative culturing, disk diffusion tests for isolate resistance phenotype, and 20 blood samples without spikes.

[2] = test system: Pseudomonas aeruginosa IHMA 519749 (Paer); test: Biosensor mixed species diffusion assay (immobilized cells, microscopic detection), growth of resistant strain; details: for Paer growth?: MEM 4 (4 μg/mL), MHA 0.850% agar, 4 hours
Experimental: (§1) A mixed species diffusion variation of Hodge test using a biosensor with immobilized cells and microscopic detection was performed using the same bacterial strains. Heavy suspensions of Ecol and Paer were prepared in L-histidine buffer from fresh overnight blood agar plates. Heavy suspensions were diluted in normal saline to produce 0.5 McFarland suspensions, noting the volumes of each suspension required and using the same volumes to produce 10^8 cfu/mL suspensions of each strain in L-histidine. These suspensions were further diluted to create […] and 2×10^5 cfu/mL suspensions for heavy and moderate density working samples. The working samples were then diluted 1:1 in 2 mM L-DOPA for EKC.
(§2) The strains were next introduced to a biosensor for EKC, immobilization, and detection. Paer suspensions were loaded first, placing 5 uL in the exit port side (to maintain the resistant Paer isolate in one half of each channel) of each biosensor flowcell channel to cover one half of the flowcell. Six flowcells were loaded with each concentration. EKC was performed for 5 minutes at 1.5V, and then all flowcells were washed with two aliquots of 160 μL 1 mM L-DOPA (from the entry port). Ecol suspensions were next loaded, introducing 20 μL of cells suspension from the entry port to cover the full flowcell. Six flowcells were loaded with each concentration. EKC was performed for 5 minutes at 1.5V, and all flowcells washed with 160 μL of 1/10 MHB. The manner in which the cells were introduced and captures created a site comprising Ecol cells that were distal from any Paer cells (i.e., on the entry port side of the flowcell), as well as Ecol cells that were proximal to the Paer cells (i.e., on the exit port side of the flowcell).
(§3) Antibiotic media were prepared for immobilization and inhibition testing as follows. […] An immobilization medium source plate was prepared in the detection system and maintained at 45° C. The source plate wells were loaded with 20 μL of the 10× stocks and MHB without antibiotic for growth controls. The sample cassette was placed in the detection system and maintained at 40° C. A 180 uL volume of 0.944% MHA was added to each well of the source plate and mixed, and 100 uL of pre-immobilization immobilizing medium (with an agar concentration of 0.850%) was withdrawn and introduced to a flowcell in accordance with the experimental design. The loaded biosensor was allowed to equilibrate for 5 minutes, and was then removed and cooled for 5 minutes to induce the agar immobilizing agent to change to solid phase. The flowcell ports were then sealed, and growth, imaging, and analysis were performed, with examination of each flowcell for growth of Paer, examination of the distal portion of each flowcell for growth of Ecol in the absence of Paer (distal sensitivity), and examination of the proximal portion of each flowcell for growth of Ecol in the presence of Paer (proximal resistance), indicative of a positive mixed species resistance due to diffusion of metallo-beta-lactamase.
(§4) In order to test for enzyme-mediated cross-species resistance effects, a method for was devised to test a sensitive strain, Escherichia coli ATCC 25922 (Ecol), in the presence of a resistant strain, Pseudomonas aeruginosa IHMA 519749 (Paer) in the immobilized format. The method involved first immobilizing the resistant strain on the surface of a portion of each test flowcell of the cassette (approximately half) and then immobilizing the sensitive (sentinel) strain on the surface of the full flowcell including the area containing the resistant strain. This strategy provides an internal control for treatment effects on the sentinel strain in an area far from the resistant strain along with an area where close-field effects can be observed in the same flowcell. […]

[3] = test system: Escherichia coli ATCC 25922 (Ecol); test: Biosensor mixed species diffusion assay (immobilized cells, microscopic detection), growth of sentinel strain; details: for Mixed species resistance factor diffusion? / Ecol growth in distal site? / Ecol growth in proximal site?: MEM 4 (4 μg/mL); for Ecol growth in distal site?: distal from Paer; for Ecol growth in proximal site?: proximal to Paer
Experimental: as §1, §2, §3, §4

[4] = Flowcell 9, Ecol 10^6/Paer 10^6
[5] = Flowcell 10, Ecol 10^6/Paer 10^5
[6] = Flowcell 11, Ecol 10^5/Paer 10^6
[7] = Flowcell 12, Ecol 10^5/Paer 10^5
[8] = Flowcell 9, Ecol 10^6/Paer 10^6, 4 hours
[9] = Flowcell 10, Ecol 10^6/Paer 10^5, 4 hours
[10] = Flowcell 11, Ecol 10^5/Paer 10^6, 4 hours
[11] = Flowcell 12, Ecol 10^5/Paer 10^5, 4 hours

Compound | SA clone growth in immobilizing medium with antibiotic (darkfield images, FIG. 2B) [1] | Paer growth? [2, 4] | Paer growth? [2, 5] | Paer growth? [2, 6] | Paer growth? [2, 7] | Paer growth morphology and rate under antibiotic vs growth control ([2]; MEM at 4 μg/mL, immobilized in MHA, proximal site) | Mixed species resistance factor diffusion? [3, 4] | Ecol growth in distal site? [3, 8] | Ecol growth in proximal site? [3, 8] | Mixed species resistance factor diffusion? [3, 5] | Ecol growth in distal site? [3, 9] | Ecol growth in proximal site? [3, 9] | Mixed species resistance factor diffusion? [3, 6] | Ecol growth in distal site? [3, 10] | Ecol growth in proximal site? [3, 10] | Mixed species resistance factor diffusion? [3, 7] | Ecol growth in distal site? [3, 11] | Ecol growth in proximal site? [3, 11] | Ecol growth and morphology under antibiotic (time-lapse images) ([3]; MEM at 4 μg/mL, immobilized in MHA, 4 hours)
CO[C@@]1(NC(=O)Cc2cccs2)C(=O)N2C(C(=O)O)=C(COC(N)=O)CS[C@@H]21 [FOX, cefoxitin] | growth indicating a methicillin-resistant phenotype | – | – | – | – | – | – | – | – | – | – | – | – | – | – | – | – | – | –
C[C@@H](O)[C@H]1C(=O)N2C(C(=O)O)=C(S[C@@H]3CN[C@H](C(=O)N(C)C)C3)[C@H](C)[C@H]12 [MEM, meropenem] | – | Yes | Yes | Yes | Yes | same morphology and growth rate as the growth control condition | No | No | No | No | No | No | No | No | No | No | No | No | slight growth or elongation of the single cell with later fading and in many colonies complete lysis
